# Like-named read-outs stand apart in the source and are kept apart here.
# Assays:
# Format in all cases: cell-based
# [1] = tested on: Escherichia coli; experiment: MIC measurement in agar medium (dilution test), Coli; settings: potentiator alone
# Description: Inhibitory minimum concentration measurement tests are made in a solid agar medium according to international standards in force (CLSI M7-A9 Jan 12 standards): dispersion of the compounds to be tested in a Mueller Hinton gelose. An adaptation relating to the hydrophobicity of compounds and compositions is however necessary to disperse them in the medium: dilution of the compounds in a solvent. The compounds and compositions incorporated in the agar medium can be diluted beforehand in one or more solvents (Tween® 80 diluted with water, Tween® 80 diluted with […], DMSO diluted with water). The strains are deposited onto the agar surface with a steers apparatus. In the examples, different dissolution methods for products are tested in parallel to circumvent the problems of water/solvent distribution coefficient of the molecules (antimicrobial and potentiator) whereas the bacteria grow only in the aqueous phase. The technical requirement will not intervene in in vivo tests. The same dilution methods can be implemented in a liquid medium (microplates and tubes). The same methodology is implemented with fungi. […] MIC measurement: the minimum inhibitory concentration measurement tests are made in an agar solid medium according to international standards in force (CLSI standards), according to the previously defined protocol. […] The booster contribution as compared with the MIC of the antibiotic alone is expressed in a (MIC ATB)/(MIC ATB+booster) ratio. Thereby, gains are defined: […]
# [2] = tested on: Strain 10168, methicillin resistant S. aureus (MRSA); experiment: Resistance test (resistant mutants), Strain 10168; settings: MRSA, text after Table 16
# Protocol: (§1) After 48 h incubation, the presence or absence of colonies likely to be resistant mutants is observed.
# (§2) ED control or DMSO=only distilled water or DMSO is added
# (§3) Ciprofloxacine DMSO: addition of Ciprofloxacine in DMSO
# [3] = tested on: methicillin resistant S. aureus (MRSA) strains 09003, 10168; experiment: MIC of the potentiator used alone on the strains of Examples 3 and 4; settings: Staphylococcus aureus, on these strains
# [4] = tested on: bacterial strains (Pyo, Coli, Staph); experiment: MIC measurement in agar medium, tested bacterial strains overall; settings: compound alone, depending on the strains
# Description: Inhibitory minimum concentration measurement tests are made in a solid agar medium according to international standards in force (CLSI M7-A9 Jan 12 standards): dispersion of the compounds to be tested in a Mueller Hinton gelose. An adaptation relating to the hydrophobicity of compounds and compositions is however necessary to disperse them in the medium: dilution of the compounds in a solvent. The compounds and compositions incorporated in the agar medium can be diluted beforehand in one or more solvents (Tween® 80 diluted with water, Tween® 80 diluted with […], DMSO diluted with water). The strains are deposited onto the agar surface with a steers apparatus. In the examples, different dissolution methods for products are tested in parallel to circumvent the problems of water/solvent distribution coefficient of the molecules (antimicrobial and potentiator) whereas the bacteria grow only in the aqueous phase. The technical requirement will not intervene in in vivo tests. The same dilution methods can be implemented in a liquid medium (microplates and tubes). The same methodology is implemented with fungi. MIC measurement: the minimum inhibitory concentration measurement tests are made in an agar solid medium according to international standards in force (CLSI standards), according to the previously defined protocol. […] [table]
# [5] = tested on: Strain 10168 SARM; experiment: Growth test in liquid medium; settings: compound at a very low dose
# Description: The growth tests are made in a liquid medium with prior dispersing the antibiotic booster in a suitable solvent (tween/water).
# 4XMIC means that the concentration of antibiotic is 4 times higher than its MIC, measured when used alone on the strain considered.
# [6] = tested on: MSSA 8237; experiment: Etest, staphylococci MSSA 8237; settings: for MIC: Staphylococcus aureus, MSSA
# Description: (§4) The corresponding tests are made based on the usual MIC test: the Etest® (Biomerieux) strip is deposited onto the surface of a seeded agar medium in which the booster has been incorporated. This test enables solvent effect risks, that is a possible interaction with the solvent used in vitro, to be minimised.
# (§5) The control corresponds to the test made without cineol. A control is made in each solvent tested: distilled water, Tween/water and DMSO.
# (§6) ED control=antibiotic alone in distilled water
# (§7) DMSO control=antibiotic alone in DMSO
# (§8) TE control=antibiotic alone in Tween® 80
# [7] = tested on: Strain 09003, methicillin resistant S. aureus (MRSA); experiment: Resistance test (resistant mutants), Strain 09003; settings: MRSA, text after Table 15
# Protocol: as §1, §2, §3
# [8] = tested on: E. Coli Strain 8150; experiment: Etest, E. Coli Strain 8150; settings: for MIC: Escherichia coli, read-out: MIC of Pipera tazo, Strain 8150; for MIC of Meropenem / MIC of Tigecycline / MIC of Pipera tazo: Strain 8150
# Description: as §4, §5, §6, §7, §8
# [9] = MSSA 8237, booster 1 mg/L in agar, DMSO
# [10] = MSSA 8237, booster 1 mg/L in agar, Tween/water
# [11] = MSSA 8237, booster 4 mg/L in agar, DMSO
# [12] = MSSA 8237, booster 4 mg/L in agar, Tween/water
# [13] = MSSA 8237, booster 16 mg/L in agar, DMSO
# [14] = MSSA 8237, booster 16 mg/L in agar, Tween/water
# [15] = MSSA 8237, booster 1 mg/L in agar, DMSO, read-out: MIC of Clindamycine
# [16] = MSSA 8237, booster 1 mg/L in agar, Tween/water, read-out: MIC of Clindamycine
# [17] = MSSA 8237, booster 4 mg/L in agar, DMSO, read-out: MIC of Clindamycine
# [18] = MSSA 8237, booster 4 mg/L in agar, Tween/water, read-out: MIC of Clindamycine
# [19] = MSSA 8237, booster 16 mg/L in agar, DMSO, read-out: MIC of Clindamycine
# [20] = MSSA 8237, booster 16 mg/L in agar, Tween/water, read-out: MIC of Clindamycine
# [21] = read-out: MIC of Pipera tazo, MSSA 8237, booster 1 mg/L in agar, DMSO
# [22] = read-out: MIC of Pipera tazo, MSSA 8237, booster 1 mg/L in agar, Tween/water
# [23] = read-out: MIC of Pipera tazo, MSSA 8237, booster 4 mg/L in agar, DMSO
# [24] = read-out: MIC of Pipera tazo, MSSA 8237, booster 4 mg/L in agar, Tween/water
# [25] = read-out: MIC of Pipera tazo, MSSA 8237, booster 16 mg/L in agar, Tween/water
# [26] = booster 1 mg/L in agar, Tween/water
# [27] = booster 4 mg/L in agar, Tween/water
# [28] = booster 16 mg/L in agar, Tween/water
compound,measurement,setting,value
"O=C(OCc1ccccc1)c1ccccc1 [BB, benzyl benzoate]",MIC 50,[1]; solvent DMSO,>1%
same,MIC 90,[1]; solvent DMSO,>1%
same,MIC 50,[1]; solvent Tween/prop glyc,>1%
same,MIC 90,[1]; solvent Tween/prop glyc,>1%
same,MIC 50,[1]; solvent Tween/water,>1%
same,MIC 90,[1]; solvent Tween/water,>1%
same,MIC 50,[1]; solvent water/water,>1%
same,MIC 90,[1]; solvent water/water,>1%
same,occurrence of mutants on addition of the compound to ciprofloxacine,[2],does not cause the occurrence of mutants any longer
same,MIC,[3],> 10000 µg/mL
same,MIC,[4],> 10000 µg/mL
same,effect of the compound on bactericidal rate of Augmentin,[5],enables the bactericidal rate of Augmentin® to be accelerated
same,MIC of Cefoxitine,[6]; [9],2 µg/mL
same,MIC of Meropenem,[6]; [9],0.25 µg/mL
same,MIC of Penicillin G,[6]; [9],0.38 µg/mL
same,MIC of Cefoxitine,[6]; [10],3 µg/mL
same,MIC of Meropenem,[6]; [10],0.19 µg/mL
same,MIC of Penicillin G,[6]; [10],0.25 µg/mL
same,MIC of Cefoxitine,[6]; [11],3 µg/mL
same,MIC of Meropenem,[6]; [11],0.19 µg/mL
same,MIC of Penicillin G,[6]; [11],0.25 µg/mL
same,MIC of Cefoxitine,[6]; [12],3 µg/mL
same,MIC of Meropenem,[6]; [12],0.125 µg/mL
same,MIC of Penicillin G,[6]; [12],0.19 µg/mL
same,MIC of Cefoxitine,[6]; [13],3 µg/mL
same,MIC of Meropenem,[6]; [13],0.19 µg/mL
same,MIC of Penicillin G,[6]; [13],0.19 µg/mL
same,MIC of Cefoxitine,[6]; [14],3 µg/mL
same,MIC of Meropenem,[6]; [14],0.064 µg/mL
same,MIC of Penicillin G,[6]; [14],0.125 µg/mL
same,MIC,[6]; [15],0.047 µg/mL
same,MIC,[6]; [16],0.047 µg/mL
same,MIC,[6]; [17],0.047 µg/mL
same,MIC,[6]; [18],0.047 µg/mL
same,MIC,[6]; [19],0.047 µg/mL
same,MIC,[6]; [20],0.094 µg/mL
same,MIC,[6]; [21],1 µg/mL
same,MIC,[6]; [22],1 µg/mL
same,MIC,[6]; [23],1 µg/mL
same,MIC,[6]; [24],1 µg/mL
same,MIC,"[6]; read-out: MIC of Pipera tazo, MSSA 8237, booster 16 mg/L in agar, DMSO",0.75 µg/mL
same,MIC,[6]; [25],0.75 µg/mL
same,occurrence of mutants on addition of the compound to ciprofloxacine,[7],does not cause the occurrence of mutants any longer
same,MIC,"[8]; booster 1 mg/L in agar, DMSO",0.75 µg/mL
same,MIC,[8]; [26],1.5 µg/mL
same,MIC,"[8]; booster 4 mg/L in agar, DMSO",1 µg/mL
same,MIC,[8]; [27],1 µg/mL
same,MIC,"[8]; booster 16 mg/L in agar, DMSO",1 µg/mL
same,MIC,[8]; [28],1.5 µg/mL
same,MIC of Meropenem,"[8]; booster 1 mg/L in agar, DMSO",0.047 µg/mL
same,MIC of Tigecycline,"[8]; booster 1 mg/L in agar, DMSO",0.125 µg/mL
same,MIC of Meropenem,[8]; [26],0.094 µg/mL
same,MIC of Tigecycline,[8]; [26],0.125 µg/mL
same,MIC of Meropenem,"[8]; booster 4 mg/L in agar, DMSO",0.064 µg/mL
same,MIC of Tigecycline,"[8]; booster 4 mg/L in agar, DMSO",0.094 µg/mL
same,MIC of Meropenem,[8]; [27],0.064 µg/mL
same,MIC of Tigecycline,[8]; [27],0.19 µg/mL
same,MIC of Meropenem,"[8]; booster 16 mg/L in agar, DMSO",0.094 µg/mL
same,MIC of Tigecycline,"[8]; booster 16 mg/L in agar, DMSO",0.125 µg/mL
same,MIC of Meropenem,[8]; [28],0.094 µg/mL
same,MIC of Tigecycline,[8]; [28],0.094 µg/mL
"CC(=O)OCC=Cc1ccccc1 [AC, cinnamyl acetate]",MIC 50,[1]; solvent DMSO,1.00%
same,MIC 90,[1]; solvent DMSO,1.00%
same,MIC 50,[1]; solvent Tween/prop glyc,>1%
same,MIC 90,[1]; solvent Tween/prop glyc,>1%
same,MIC 50,[1]; solvent Tween/water,>1%
same,MIC 90,[1]; solvent Tween/water,>1%
same,MIC 50,[1]; solvent water/water,>1%
same,MIC 90,[1]; solvent water/water,>1%
same,occurrence of mutants on addition of the compound to ciprofloxacine,[2],does not cause the occurrence of mutants any longer
same,MIC,[3],> 10000 µg/mL
same,MIC,[4],> 10000 µg/mL
same,effect of the compound on bactericidal rate of Augmentin,[5],enables the bactericidal rate of Augmentin® to be accelerated
same,MIC of Cefoxitine,[6]; [9],2 µg/mL
same,MIC of Meropenem,[6]; [9],0.25 µg/mL
same,MIC of Penicillin G,[6]; [9],0.25 µg/mL
same,MIC of Cefoxitine,[6]; [10],3 µg/mL
same,MIC of Meropenem,[6]; [10],0.25 µg/mL
same,MIC of Penicillin G,[6]; [10],0.5 µg/mL
same,MIC of Cefoxitine,[6]; [11],3 µg/mL
same,MIC of Meropenem,[6]; [11],0.19 µg/mL
same,MIC of Penicillin G,[6]; [11],0.19 µg/mL
same,MIC of Cefoxitine,[6]; [12],2 µg/mL
same,MIC of Meropenem,[6]; [12],0.19 µg/mL
same,MIC of Penicillin G,[6]; [12],0.125 µg/mL
same,MIC of Cefoxitine,[6]; [13],<0.016 µg/mL
same,MIC of Meropenem,[6]; [13],<0.002 µg/mL
same,MIC of Penicillin G,[6]; [13],<0.002 µg/mL
same,MIC of Cefoxitine,[6]; [14],1.5 µg/mL
same,MIC of Meropenem,[6]; [14],0.064 µg/mL
same,MIC of Penicillin G,[6]; [14],0.064 µg/mL
same,MIC,[6]; [15],0.047 µg/mL
same,MIC,[6]; [16],0.047 µg/mL
same,MIC,[6]; [17],0.047 µg/mL
same,MIC,[6]; [18],0.064 µg/mL
same,MIC,[6]; [19],< 0.016 µg/mL
same,MIC,[6]; [20],0.125 µg/mL
same,MIC,[6]; [21],0.75 µg/mL
same,MIC,[6]; [22],1 µg/mL
same,MIC,[6]; [23],0.5 µg/mL
same,MIC,[6]; [24],0.5 µg/mL
same,MIC,[6]; [25],0.38 µg/mL
same,occurrence of mutants on addition of the compound to ciprofloxacine,[7],does not cause the occurrence of mutants any longer
same,MIC,"[8]; booster 1 mg/L in agar, DMSO",0.75 µg/mL
same,MIC,[8]; [26],0.5 µg/mL
same,MIC of Meropenem,"[8]; booster 1 mg/L in agar, DMSO",0.023 µg/mL
same,MIC of Tigecycline,"[8]; booster 1 mg/L in agar, DMSO",0.064 µg/mL
same,MIC of Meropenem,[8]; [26],0.016 µg/mL
same,MIC of Tigecycline,[8]; [26],0.064 µg/mL
same,MIC of Meropenem,"[8]; booster 4 mg/L in agar, DMSO",<
same,MIC of Pipera tazo,"[8]; booster 4 mg/L in agar, DMSO",<
same,MIC of Tigecycline,"[8]; booster 4 mg/L in agar, DMSO",<
same,MIC of Meropenem,[8]; [27],<
same,MIC of Pipera tazo,[8]; [27],<
same,MIC of Tigecycline,[8]; [27],<
same,MIC of Meropenem,"[8]; booster 16 mg/L in agar, DMSO",<
same,MIC of Pipera tazo,"[8]; booster 16 mg/L in agar, DMSO",<
same,MIC of Tigecycline,"[8]; booster 16 mg/L in agar, DMSO",<
same,MIC of Meropenem,[8]; [28],<
same,MIC of Pipera tazo,[8]; [28],<
same,MIC of Tigecycline,[8]; [28],<
